Test results from ChEMBL document CHEMBL3739399, “Discovery of Indazole Derivatives as a Novel Class of Bacterial Gyrase B Inhibitors” (ACS Med Chem Lett, 2015).
Values after ≈ are worked out from the molar mass of the structure shown.

Tests used:
DNA gyrase subunit B = DNA gyrase subunit B (Staphylococcus aureus, UniProt P0A0K8); assay: Inhibition of Staphylococcus aureus Gyrase B ATPase activity by fluorescence analysis
[1] = Inhibition of Staphylococcus aureus topoisomerase 4 by fluorescence analysis
Staphylococcus aureus [2] = assay: Antibacterial activity against methicillin-sensitive Staphylococcus aureus 42 for 18 to 20 hrs by broth microdilution method; type: functional
Staphylococcus aureus [3] = assay: Antibacterial activity against methicillin-resistant Staphylococcus aureus 1118 for 18 to 20 hrs by broth microdilution method; type: functional
Staphylococcus aureus [4] = assay: Antibacterial activity against methicillin and ciprofloxacin-resistant Staphylococcus aureus 1721 for 18 to 20 hrs by broth microdilution method; type: functional
Streptococcus pneumoniae [5] = assay: Antibacterial activity against Streptococcus pneumoniae for 18 to 24 hrs by broth microdilution method; type: functional
Enterococcus faecium = assay: Antibacterial activity against Enterococcus faecium for 18 to 20 hrs by broth microdilution method; type: functional
Enterococcus faecalis = assay: Antibacterial activity against Enterococcus faecalis for 18 to 20 hrs by broth microdilution method; type: functional
Streptococcus pneumoniae [6] = assay: Antibacterial activity against Streptococcus pneumoniae 402 infected in sc dosed mouse assessed as reduction in 2 log CFU in lung compound administered as BID for 1 day measured 24 hrs after last dose; type: functional
Streptococcus pneumoniae [7] = assay: Antibacterial activity against Streptococcus pneumoniae 402 infected in sc dosed mouse assessed as reduction in 3 log CFU in lung compound administered as BID for 1 day measured 24 hrs after last dose; type: functional
Mus musculus = assay: Dose-normalized AUC in mouse at 2 mg/kg, iv by LC-MS/MS analysis; type: ADME, organism-based; conditions: in vivo
[8] = Volume of distribution at steady state in mouse at 2 mg/kg, iv by LC-MS/MS analysis; type: ADME, organism-based; conditions: in vivo, read-out: Vdss
[9] = Half-life in mouse at 2 mg/kg, iv by LC-MS/MS analysis; type: ADME, organism-based; conditions: in vivo
[10] = Clearance in mouse at 2 mg/kg, iv by LC-MS/MS analysis; type: ADME, organism-based; conditions: in vivo

DNA gyrase subunit B, sequence (P0A0K8 whole entry): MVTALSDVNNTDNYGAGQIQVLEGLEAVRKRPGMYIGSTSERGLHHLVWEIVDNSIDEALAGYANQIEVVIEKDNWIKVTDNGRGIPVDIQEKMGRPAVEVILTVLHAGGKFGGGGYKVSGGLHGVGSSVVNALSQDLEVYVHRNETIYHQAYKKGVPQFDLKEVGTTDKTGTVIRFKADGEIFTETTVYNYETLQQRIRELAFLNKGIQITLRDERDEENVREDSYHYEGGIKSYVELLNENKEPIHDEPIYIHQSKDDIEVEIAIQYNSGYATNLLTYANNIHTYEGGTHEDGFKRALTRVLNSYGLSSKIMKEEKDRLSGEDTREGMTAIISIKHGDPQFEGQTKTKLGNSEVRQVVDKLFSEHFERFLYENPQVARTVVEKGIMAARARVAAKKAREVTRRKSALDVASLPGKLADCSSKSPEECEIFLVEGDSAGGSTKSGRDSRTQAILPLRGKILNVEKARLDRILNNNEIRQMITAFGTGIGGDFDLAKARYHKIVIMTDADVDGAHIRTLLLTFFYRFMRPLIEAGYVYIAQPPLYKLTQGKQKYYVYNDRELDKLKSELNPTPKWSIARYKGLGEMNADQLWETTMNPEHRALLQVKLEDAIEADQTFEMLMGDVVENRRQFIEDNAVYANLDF

SMILES: CCCc1cccc2c(-c3cnc(-c4ccnc(C(=O)O)c4)s3)n[nH]c12
- IC50 (DNA gyrase subunit B): 0.011 µM
- IC50 [1]: > 1 µM
- MIC (Staphylococcus aureus [2]): > 8 mg/L
- MIC (Staphylococcus aureus [3]): > 8 mg/L
- MIC (Staphylococcus aureus [4]): > 8 mg/L
- MIC (Streptococcus pneumoniae [5]): 1 mg/L (≈ 2.74 µM)
- MIC (Enterococcus faecium): > 8 mg/L
- MIC (Enterococcus faecalis): > 8 mg/L

SMILES: CCCc1c(OC)ccc2c(-c3cnc(-c4ccc(C(=O)O)c(F)c4)s3)n[nH]c12
- IC50 (DNA gyrase subunit B): 0.015 µM
- MIC (Staphylococcus aureus [2]): 0.06 mg/L (≈ 0.146 µM)
- MIC (Staphylococcus aureus [3]): 0.125 mg/L (≈ 0.304 µM)
- MIC (Staphylococcus aureus [4]): 0.125 mg/L (≈ 0.304 µM)
- MIC (Streptococcus pneumoniae [5]): 0.125 mg/L (≈ 0.304 µM)
- MIC (Enterococcus faecium): 0.03 mg/L (≈ 0.0729 µM)
- MIC (Enterococcus faecalis): 0.03 mg/L (≈ 0.0729 µM)
- ED (Streptococcus pneumoniae [6]): 60.6 mg/kg
- ED (Streptococcus pneumoniae [7]): 103.7 mg/kg
- AUC/dose (Mus musculus): 0.893 µg·h/mL/mg/kg
- Vd [8]: 0.32 L/kg
- half-life [9]: 18.6 min
- clearance [10]: 1.14 L/h/kg

SMILES: CCCc1c(O)ccc2c(-c3cnc(-c4cnc(C(=O)O)c(O)c4)s3)n[nH]c12
- IC50 (DNA gyrase subunit B): 0.013 µM
- MIC (Staphylococcus aureus [2]): 1 mg/L (≈ 2.52 µM)
- MIC (Staphylococcus aureus [3]): 4 mg/L (≈ 10.1 µM)
- MIC (Staphylococcus aureus [4]): 2 mg/L (≈ 5.05 µM)
- MIC (Streptococcus pneumoniae [5]): 0.25 mg/L (≈ 0.631 µM)
- MIC (Enterococcus faecium): 0.25 mg/L (≈ 0.631 µM)
- MIC (Enterococcus faecalis): 0.125 mg/L (≈ 0.315 µM)

SMILES: CCCc1cccc2c(-c3cnc(-c4ccc(C(=O)NCCN5CCCCC5)nc4)s3)n[nH]c12
- IC50 (DNA gyrase subunit B): 0.02 µM
- IC50 [1]: > 2 µM
- MIC (Staphylococcus aureus [2]): 2 mg/L (≈ 4.21 µM)
- MIC (Staphylococcus aureus [3]): 1 mg/L (≈ 2.11 µM)
- MIC (Staphylococcus aureus [4]): 2 mg/L (≈ 4.21 µM)
- MIC (Streptococcus pneumoniae [5]): > 8 mg/L
- MIC (Enterococcus faecium): > 8 mg/L
- MIC (Enterococcus faecalis): > 8 mg/L

SMILES: CCCc1cccc2c(-c3cnc(-c4ccc(CO)nc4)s3)n[nH]c12
- IC50 (DNA gyrase subunit B): 0.015 µM
- IC50 [1]: > 4 µM
- MIC (Staphylococcus aureus [2]): 0.06 mg/L (≈ 0.171 µM)
- MIC (Staphylococcus aureus [3]): 0.06 mg/L (≈ 0.171 µM)
- MIC (Staphylococcus aureus [4]): 0.06 mg/L (≈ 0.171 µM)
- MIC (Streptococcus pneumoniae [5]): 8 mg/L (≈ 22.8 µM)
- MIC (Enterococcus faecium): > 8 mg/L
- MIC (Enterococcus faecalis): > 8 mg/L

SMILES: CCCc1cccc2c(-c3cnc(-c4ccc(COP(=O)(O)O)nc4)s3)n[nH]c12
- IC50 (DNA gyrase subunit B): 0.009 µM
- IC50 [1]: 0.147 µM
- MIC (Staphylococcus aureus [2]): 0.25 mg/L (≈ 0.581 µM)
- MIC (Staphylococcus aureus [3]): 0.25 mg/L (≈ 0.581 µM)
- MIC (Staphylococcus aureus [4]): 0.5 mg/L (≈ 1.16 µM)
- MIC (Streptococcus pneumoniae [5]): 2 mg/L (≈ 4.65 µM)
- MIC (Enterococcus faecium): 2 mg/L (≈ 4.65 µM)
- MIC (Enterococcus faecalis): > 8 mg/L

SMILES: CCCc1cccc2c(-c3cnc(-c4cnc(C(=O)O)c(O)c4)s3)n[nH]c12
- IC50 (DNA gyrase subunit B): 0.011 µM
- IC50 [1]: 0.06 µM
- MIC (Staphylococcus aureus [2]): 0.125 mg/L (≈ 0.329 µM)
- MIC (Staphylococcus aureus [3]): 0.06 mg/L (≈ 0.158 µM)
- MIC (Staphylococcus aureus [4]): 0.125 mg/L (≈ 0.329 µM)
- MIC (Streptococcus pneumoniae [5]): 0.5 mg/L (≈ 1.31 µM)
- MIC (Enterococcus faecium): 0.125 mg/L (≈ 0.329 µM)
- MIC (Enterococcus faecalis): 0.125 mg/L (≈ 0.329 µM)

SMILES: CCCc1cccc2c(-c3cncs3)n[nH]c12
- IC50 (DNA gyrase subunit B): 6.5 µM
- MIC (Staphylococcus aureus [2]): > 32 mg/L
- MIC (Staphylococcus aureus [3]): > 32 mg/L
- MIC (Staphylococcus aureus [4]): > 32 mg/L
- MIC (Streptococcus pneumoniae [5]): > 32 mg/L
- MIC (Enterococcus faecium): > 32 mg/L
- MIC (Enterococcus faecalis): > 32 mg/L

SMILES: CCOc1cccc2c(-c3cnc(-c4ccc(C(=O)O)c(F)c4)s3)n[nH]c12
- IC50 (DNA gyrase subunit B): < 0.008 µM
- MIC (Staphylococcus aureus [2]): 0.5 mg/L (≈ 1.3 µM)
- MIC (Staphylococcus aureus [3]): 0.5 mg/L (≈ 1.3 µM)
- MIC (Staphylococcus aureus [4]): 1 mg/L (≈ 2.61 µM)
- MIC (Streptococcus pneumoniae [5]): 1 mg/L (≈ 2.61 µM)
- MIC (Enterococcus faecium): 2 mg/L (≈ 5.22 µM)
- MIC (Enterococcus faecalis): 1 mg/L (≈ 2.61 µM)

SMILES: CCCOc1nccc2c(-c3cnc(-c4ccc(C(=O)O)nc4)s3)n[nH]c12
- IC50 (DNA gyrase subunit B): < 0.008 µM
- MIC (Staphylococcus aureus [2]): 4 mg/L (≈ 10.5 µM)
- MIC (Staphylococcus aureus [3]): 4 mg/L (≈ 10.5 µM)
- MIC (Staphylococcus aureus [4]): 8 mg/L (≈ 21 µM)
- MIC (Streptococcus pneumoniae [5]): 0.06 mg/L (≈ 0.157 µM)
- MIC (Enterococcus faecium): 2 mg/L (≈ 5.24 µM)
- MIC (Enterococcus faecalis): 2 mg/L (≈ 5.24 µM)

SMILES: CCCc1cccc2c(-c3cnc(-c4ccc(C(=O)OC)nc4)s3)n[nH]c12
- IC50 (DNA gyrase subunit B): 0.029 µM
- IC50 [1]: > 10 µM
- MIC (Staphylococcus aureus [2]): 0.5 mg/L (≈ 1.32 µM)
- MIC (Staphylococcus aureus [3]): 1 mg/L (≈ 2.64 µM)
- MIC (Staphylococcus aureus [4]): 2 mg/L (≈ 5.28 µM)
- MIC (Streptococcus pneumoniae [5]): 0.125 mg/L (≈ 0.33 µM)
- MIC (Enterococcus faecium): > 8 mg/L
- MIC (Enterococcus faecalis): > 8 mg/L

SMILES: CCCOc1nccc2c(-c3cnc(-c4ccc(CO)nc4)s3)n[nH]c12
- IC50 (DNA gyrase subunit B): < 0.008 µM
- MIC (Staphylococcus aureus [2]): 0.125 mg/L (≈ 0.34 µM)
- MIC (Staphylococcus aureus [3]): 0.25 mg/L (≈ 0.68 µM)
- MIC (Staphylococcus aureus [4]): 0.125 mg/L (≈ 0.34 µM)
- MIC (Streptococcus pneumoniae [5]): 0.25 mg/L (≈ 0.68 µM)
- MIC (Enterococcus faecium): 1 mg/L (≈ 2.72 µM)
- MIC (Enterococcus faecalis): 0.25 mg/L (≈ 0.68 µM)

SMILES: CCCc1cccc2c(-c3cnc(-c4cnc(C(=O)OC)c(O)c4)s3)n[nH]c12
- IC50 (DNA gyrase subunit B): < 0.008 µM
- IC50 [1]: 0.068 µM
- MIC (Staphylococcus aureus [2]): 1 mg/L (≈ 2.54 µM)
- MIC (Staphylococcus aureus [3]): 1 mg/L (≈ 2.54 µM)
- MIC (Staphylococcus aureus [4]): 2 mg/L (≈ 5.07 µM)
- MIC (Streptococcus pneumoniae [5]): 1 mg/L (≈ 2.54 µM)
- MIC (Enterococcus faecium): 2 mg/L (≈ 5.07 µM)
- MIC (Enterococcus faecalis): 1 mg/L (≈ 2.54 µM)

SMILES: CCCc1cccc2c(-c3cnc(-c4cnc(C(=O)O)c(F)c4)s3)n[nH]c12
- IC50 (DNA gyrase subunit B): < 0.008 µM
- IC50 [1]: 0.024 µM
- MIC (Staphylococcus aureus [2]): 0.125 mg/L (≈ 0.327 µM)
- MIC (Staphylococcus aureus [3]): 0.125 mg/L (≈ 0.327 µM)
- MIC (Staphylococcus aureus [4]): 0.25 mg/L (≈ 0.654 µM)
- MIC (Streptococcus pneumoniae [5]): 0.25 mg/L (≈ 0.654 µM)
- MIC (Enterococcus faecium): 0.25 mg/L (≈ 0.654 µM)
- MIC (Enterococcus faecalis): 0.25 mg/L (≈ 0.654 µM)

SMILES: CCOc1nccc2c(-c3cnc(-c4cnc(C(=O)O)cc4C)s3)n[nH]c12
- IC50 (DNA gyrase subunit B): < 0.008 µM
- MIC (Staphylococcus aureus [2]): 0.25 mg/L (≈ 0.655 µM)
- MIC (Staphylococcus aureus [3]): 0.5 mg/L (≈ 1.31 µM)
- MIC (Staphylococcus aureus [4]): 0.5 mg/L (≈ 1.31 µM)
- MIC (Streptococcus pneumoniae [5]): 0.125 mg/L (≈ 0.328 µM)
- MIC (Enterococcus faecium): 0.5 mg/L (≈ 1.31 µM)
- MIC (Enterococcus faecalis): 0.25 mg/L (≈ 0.655 µM)
